Source: PubChem BioAssay AID330 (DTP/NCI, 2004)
Values joined by “and” are separate entries in the source; they are usually repeats but may differ in a detail not shown here. Identical values can stand only once. Toxic doses and inconclusive results are not listed. How the source made its calls: active means survival T/C of 150% or more; inactive means T/C below 125% in these data.

System: P388 leukemia ip, CD2F1 mice, survival T/C
Experiment: NCI In Vivo Anticancer Drug Screen. Data for tumor model P388 Leukemia (intraperitoneal) in CD2F1 (CDF1) mice
Details: endpoint: median survival time, higher = longer survival
Summary of the method: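 Mice carrying the transplanted tumor received test compound or vehicle. Survival was recorded in each group, and the value is the treated-group measurement divided by that of the vehicle-treated control group.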

[1] = dose: 50.0 mg/kg/injection, schedule: Q01DX009 (ip), vehicle: Klucel (hydroxypropylcellulose) (HPC)
[2] = dose: 100.0 mg/kg/injection, schedule: Q01DX009 (ip), vehicle: Klucel (hydroxypropylcellulose) (HPC)
[3] = dose: 200.0 mg/kg/injection, schedule: Q01DX009 (ip), vehicle: Klucel (hydroxypropylcellulose) (HPC)
[4] = dose: 12.5 mg/kg/injection, schedule: Q01DX005 (ip), vehicle: Klucel (hydroxypropylcellulose) (HPC)
[5] = dose: 25.0 mg/kg/injection, schedule: Q01DX005 (ip), vehicle: Klucel (hydroxypropylcellulose) (HPC)
[6] = dose: 50.0 mg/kg/injection, schedule: Q01DX005 (ip), vehicle: Klucel (hydroxypropylcellulose) (HPC)
[7] = dose: 100.0 mg/kg/injection, schedule: Q01DX005 (ip), vehicle: Klucel (hydroxypropylcellulose) (HPC)
[8] = dose: 100.0 mg/kg/injection, schedule: Q04DX003 (ip), vehicle: saline
[9] = dose: 200.0 mg/kg/injection, schedule: Q04DX003 (ip), vehicle: saline
[10] = dose: 60.0 mg/kg/injection, schedule: Q01DX005 (ip), vehicle: saline
[11] = dose: 120.0 mg/kg/injection, schedule: Q01DX005 (ip), vehicle: saline
[12] = dose: 240.0 mg/kg/injection, schedule: Q01DX005 (ip), vehicle: saline

Measured: T/C

O=C(O)/C=C(O)/C=C/c1ccccc1
inactive: dose: 100.0 mg/kg/injection, schedule: Q04DX003 (ip), vehicle: saline with Tween-80 92 % of control | dose: 200.0 mg/kg/injection, schedule: Q04DX003 (ip), vehicle: saline with Tween-80 101 % of control | dose: 400.0 mg/kg/injection, schedule: Q04DX003 (ip), vehicle: saline with Tween-80 101 % of control

OC1CC2CCCCC2CC1Cl (centres undefined)
inactive: [1] 90 % of control | [2] 100 % of control | [3] 100 % of control

OCCC(N1CCOCC1)C(O)(c1ccccc1)c1ccccc1 (centres undefined)
inactive: dose: 60.0 mg/kg/injection, schedule: Q01DX005 (ip), vehicle: saline with Tween-80 93 % of control | dose: 120.0 mg/kg/injection, schedule: Q01DX005 (ip), vehicle: saline with Tween-80 93 % of control | dose: 240.0 mg/kg/injection, schedule: Q01DX005 (ip), vehicle: saline with Tween-80 97 % of control

CCOC1c2cc3c(cc2NC(=O)N1C)OCO3 (centres undefined)
inactive: dose: 37.5 mg/kg/injection, schedule: Q01DX009 (ip), vehicle: saline with Tween-80 97 % of control | dose: 75.0 mg/kg/injection, schedule: Q01DX009 (ip), vehicle: saline with Tween-80 94 % of control | dose: 150.0 mg/kg/injection, schedule: Q01DX009 (ip), vehicle: saline with Tween-80 100 % of control

COC(=O)CS(=O)(=O)CC(=O)OC
inactive: [1] 100 % of control | [2] 106 % of control | [3] 101 % of control

CCCCCCCCNC(=O)OCc1c2ccccc2cc2ccccc12
inactive: [1] 98 % of control | [2] 101 % of control | [3] 98 % of control

Brc1cccc2c(SCCCCCCSc3c4ccccc4nc4c(Br)cccc34)c3ccccc3nc12
inactive: dose: 60.0 mg/kg/injection, schedule: Q01DX005 (ip), vehicle: Klucel (hydroxypropylcellulose) (HPC) 93 % of control | dose: 120.0 mg/kg/injection, schedule: Q01DX005 (ip), vehicle: Klucel (hydroxypropylcellulose) (HPC) 92 % of control | dose: 240.0 mg/kg/injection, schedule: Q01DX005 (ip), vehicle: Klucel (hydroxypropylcellulose) (HPC) 93 % of control

CCOC(=O)c1cccc2c([N+](=O)[O-])c([N+](=O)[O-])cc(C(=O)OCC)c12
inactive: dose: 100.0 mg/kg/injection, schedule: Q01DX001 (ip), vehicle: saline with Tween-80 99 % of control | dose: 200.0 mg/kg/injection, schedule: Q01DX001 (ip), vehicle: saline with Tween-80 102 % of control | dose: 400.0 mg/kg/injection, schedule: Q01DX001 (ip), vehicle: saline with Tween-80 99 % of control

CCN=C(NCC)Nc1ccc(NC(=O)Nc2ccc(NC(=O)Nc3ccc(NC(=NCC)NCC)cc3)cc2)cc1
inactive: dose: 6.25 mg/kg/injection, schedule: Q01DX005 (ip), vehicle: Klucel (hydroxypropylcellulose) (HPC) 107 % of control | [4] 117 % of control | [5] 121 % of control and 123 % of control | [6] 117 % of control | dose: 200.0 mg/kg/injection, schedule: Q01DX005 (ip), vehicle: Klucel (hydroxypropylcellulose) (HPC) 90 % of control

NC1=C(c2cccc(Cl)c2)C(=O)CC12C=CC(=O)C=C2
inactive: [1] 100 % of control | [2] 104 % of control | [3] 102 % of control

O=CN1CCCC1Cc1ccc2ccccc2c1 (centres undefined)
inactive: dose: 50.0 mg/kg/injection, schedule: Q01DX001 (ip), vehicle: Klucel (hydroxypropylcellulose) (HPC) 107 % of control | dose: 100.0 mg/kg/injection, schedule: Q01DX001 (ip), vehicle: Klucel (hydroxypropylcellulose) (HPC) 98 % of control | dose: 200.0 mg/kg/injection, schedule: Q01DX001 (ip), vehicle: Klucel (hydroxypropylcellulose) (HPC) 101 % of control

Cc1cccc(N=Nc2c(C)nn(C(N)=S)c2C)c1C
inactive: [5] 90 % of control | [6] 94 % of control | [7] 106 % of control

CNC(=O)N(C)C(C)=O
inactive: [8] 123 % of control and 94 % of control | [9] 99 % of control and 124 % of control

CC1(C)CC(COC(=O)c2c3ccccc3c3ccc4cccc5ccc2c3c54)CC(C)(C)N1O
inactive: dose: 50.0 mg/kg/injection, schedule: Q01DX009 (ip), vehicle: saline with Tween-80 98 % of control | dose: 100.0 mg/kg/injection, schedule: Q01DX009 (ip), vehicle: saline with Tween-80 106 % of control | dose: 200.0 mg/kg/injection, schedule: Q01DX009 (ip), vehicle: saline with Tween-80 91 % of control

CN(N=O)C(=O)Nc1cc(=O)[nH]c(SCc2ccccc2)n1
inactive: [4] 104 % of control | [5] 114 % of control | [6] 124 % of control
active: [7] 160 % of control

COC1/C=C/C=C(/C)Cc2cc(O)c(Cl)c(c2)N(C)C(=O)CC(OC(=O)C(C)C)C2(C)OC2C(C)C2CC1(O)NC(=O)O2 (centres undefined)
active: dose: 50.0 micrograms/kg/injection, schedule: Q01DX009 (ip), vehicle: saline + alcohol 153 % of control | dose: 100.0 micrograms/kg/injection, schedule: Q01DX009 (ip), vehicle: saline + alcohol 177 % of control and 190 % of control | dose: 200.0 micrograms/kg/injection, schedule: Q01DX009 (ip), vehicle: saline + alcohol 185 % of control and 221 % of control | dose: 400.0 micrograms/kg/injection, schedule: Q01DX009 (ip), vehicle: saline + alcohol 177 % of control and 230 % of control | dose: 800.0 micrograms/kg/injection, schedule: Q01DX009 (ip), vehicle: saline + alcohol 192 % of control and 205 % of control | dose: 1000.0 micrograms/kg/injection, schedule: Q01DX009 (ip), vehicle: saline + alcohol 182 % of control

COC(=O)c1ncn(CC#N)n1
inactive: dose: 50.0 mg/kg/injection, schedule: Q01DX005 (ip), vehicle: saline 110 % of control | dose: 100.0 mg/kg/injection, schedule: Q01DX005 (ip), vehicle: saline 112 % of control | dose: 200.0 mg/kg/injection, schedule: Q01DX005 (ip), vehicle: saline 105 % of control

O=C/C=C/n1ccccc1=S
inactive: dose: 10.0 mg/kg/injection, schedule: Q01DX001 (ip), vehicle: Klucel (hydroxypropylcellulose) (HPC) 109 % of control | dose: 20.0 mg/kg/injection, schedule: Q01DX001 (ip), vehicle: Klucel (hydroxypropylcellulose) (HPC) 102 % of control

COSc1cccc(C(F)(F)F)c1
inactive: [8] 100 % of control | [9] 100 % of control | dose: 400.0 mg/kg/injection, schedule: Q04DX003 (ip), vehicle: saline 97 % of control

O=C(Nc1ccccc1)c1csc(-c2csc(CCNC(=O)C(F)(F)F)n2)n1
inactive: dose: 12.5 mg/kg/injection, schedule: Q01DX009 (ip), vehicle: distilled water + Tween-80 88 % of control | dose: 25.0 mg/kg/injection, schedule: Q01DX009 (ip), vehicle: distilled water + Tween-80 88 % of control | dose: 100.0 mg/kg/injection, schedule: Q01DX009 (ip), vehicle: distilled water + Tween-80 88 % of control | dose: 200.0 mg/kg/injection, schedule: Q01DX009 (ip), vehicle: distilled water + Tween-80 89 % of control

N#CSCc1ccc(CSC#N)c(Cl)c1
inactive: dose: 1.56 mg/kg/injection, schedule: Q04DX003 (ip), vehicle: saline sonified 100 % of control | dose: 2.08 mg/kg/injection, schedule: Q01DX009 (ip), vehicle: saline with Tween-80 109 % of control | dose: 3.13 mg/kg/injection, schedule: Q01DX009 (ip), vehicle: saline with Tween-80 100 % of control | dose: 3.13 mg/kg/injection, schedule: Q04DX003 (ip), vehicle: saline sonified 104 % of control | dose: 4.69 mg/kg/injection, schedule: Q01DX009 (ip), vehicle: saline with Tween-80 118 % of control | dose: 6.25 mg/kg/injection, schedule: Q04DX003 (ip), vehicle: saline sonified 109 % of control

C[C@@H]1C[C@H](C)OC(CCl)O1 (some centres undefined)
inactive: [10] 100 % of control | [11] 102 % of control | [12] 98 % of control

O=[N+]([O-])O.[Cu+2].[NH-]CC[NH-].[NH-]CC[NH-]
inactive: dose: 3.12 mg/kg/injection, schedule: Q01DX009 (ip), vehicle: saline 100 % of control | dose: 6.25 mg/kg/injection, schedule: Q01DX009 (ip), vehicle: saline 100 % of control | dose: 12.5 mg/kg/injection, schedule: Q01DX009 (ip), vehicle: saline 100 % of control | dose: 25.0 mg/kg/injection, schedule: Q01DX009 (ip), vehicle: saline 92 % of control

COc1ccc(OC)c(CCN2C(=O)c3cccc4c([N+](=O)[O-])ccc(c34)C2=O)c1
inactive: [1] 98 % of control | [2] 106 % of control | [3] 113 % of control

BrCOCCCCOCBr
inactive: [10] 114 % of control | [11] 101 % of control | [12] 108 % of control
